# Assay results: patent publication US20230146395A1, “Substituted Pyrimidines and Uses Thereof” (Verge Analytics, Inc., priority 2020, published 2023)
# Where a name gives a salt, the structure may show the parent alone.
# Biological target: T1, Full length human recombinant PIKFYVE (Homo sapiens, UniProt Q9Y2I7)
# T1 construct: Full length human recombinant PIKFYVE; purchased Carna Biosciences (Kobe, Japan); host or cells: baculovirus expression system
# Assay: Inhibition of PIKfyve (microfluidic electrophoresis kinase assay, PI3P/PS substrate)
# Assay type: biochemical
# Conditions: 12 concentrations
# Experimental: Full length human recombinant PIKFYVE expressed in baculovirus expression system as N-terminal GST-fusion protein (265 kDa) was obtained from Carna Biosciences (Kobe, Japan). The kinase substrate was prepared by mixing and sonicating fluorescently-labeled phosphatidylinositol 3-phosphate (PI3P) with phospho-L-serine (PS) at a 1:10 ratio in 50 mM HEPES buffer pH 7.5.
# The kinase reactions were assembled in 384-well plates (Greiner) in a total volume of […] as follows. Kinase protein was pre-diluted in an assay buffer comprising 25 mM HEPES, pH 7.5, 1 mM DTT, 2.5 mM MgCl2, and 2.5 mM MnCl2, and 0.005% Triton X-100, and dispensed into a 384-well plate (10 μL per well). Test compounds were serially pre-diluted in DMSO and added to the protein samples by acoustic dispensing (Labcyte Echo). The concentration of DMSO was equalized to 1% in all samples. All test compounds were tested at 12 concentrations. Apilimod was used as a reference compound and was tested in identical manner in each assay plate. Control samples (0%-inhibition, in the absence of inhibitor, DMSO only) and 100%-inhibition (in the absence of enzyme) were assembled in replicates of four and were used to calculate %-inhibition in the presence of compounds. The reactions were initiated by addition of 10 μL of 2×PI3P/PS substrate supplemented with ATP. The final concentration of enzyme was 2 nM, the final concentration of ATP was […], and the final concentration of PI3P/PS substrate was 1 μM (PI3P). The kinase reactions were allowed to proceed for 3 h at room temperature. Following incubation, the reactions were quenched by addition of […] of termination buffer (100 mM HEPES, pH 7.5, 0.01% Triton X-100, 20 mM EDTA). Terminated plates were analyzed on a microfluidic electrophoresis instrument (Caliper LabChip® 3000, Caliper Life Sciences/Perkin Elmer). The change in the relative fluorescence intensity of the PI(3)P substrate and PI(3,5)P product peaks was measured. The activity in each test sample was determined as the product to sum ratio (PSR): P/(S+P), where P is the peak height of the product, and S is the peak height of the substrate. Percent inhibition (Pinh) was determined using the following equation:
# Pinh=(PSR0% inh−PSRcompound)/(PSR0% inh−PSR100% inh)*100
# in which PSRcompound is the product/sum ratio in the presence of compound, PSR0% inh is the product/sum ratio in the absence of compound, and the PSR100% inh is the product/sum ratio in the absence of the enzyme.
# T1 sequence (Q9Y2I7 whole entry): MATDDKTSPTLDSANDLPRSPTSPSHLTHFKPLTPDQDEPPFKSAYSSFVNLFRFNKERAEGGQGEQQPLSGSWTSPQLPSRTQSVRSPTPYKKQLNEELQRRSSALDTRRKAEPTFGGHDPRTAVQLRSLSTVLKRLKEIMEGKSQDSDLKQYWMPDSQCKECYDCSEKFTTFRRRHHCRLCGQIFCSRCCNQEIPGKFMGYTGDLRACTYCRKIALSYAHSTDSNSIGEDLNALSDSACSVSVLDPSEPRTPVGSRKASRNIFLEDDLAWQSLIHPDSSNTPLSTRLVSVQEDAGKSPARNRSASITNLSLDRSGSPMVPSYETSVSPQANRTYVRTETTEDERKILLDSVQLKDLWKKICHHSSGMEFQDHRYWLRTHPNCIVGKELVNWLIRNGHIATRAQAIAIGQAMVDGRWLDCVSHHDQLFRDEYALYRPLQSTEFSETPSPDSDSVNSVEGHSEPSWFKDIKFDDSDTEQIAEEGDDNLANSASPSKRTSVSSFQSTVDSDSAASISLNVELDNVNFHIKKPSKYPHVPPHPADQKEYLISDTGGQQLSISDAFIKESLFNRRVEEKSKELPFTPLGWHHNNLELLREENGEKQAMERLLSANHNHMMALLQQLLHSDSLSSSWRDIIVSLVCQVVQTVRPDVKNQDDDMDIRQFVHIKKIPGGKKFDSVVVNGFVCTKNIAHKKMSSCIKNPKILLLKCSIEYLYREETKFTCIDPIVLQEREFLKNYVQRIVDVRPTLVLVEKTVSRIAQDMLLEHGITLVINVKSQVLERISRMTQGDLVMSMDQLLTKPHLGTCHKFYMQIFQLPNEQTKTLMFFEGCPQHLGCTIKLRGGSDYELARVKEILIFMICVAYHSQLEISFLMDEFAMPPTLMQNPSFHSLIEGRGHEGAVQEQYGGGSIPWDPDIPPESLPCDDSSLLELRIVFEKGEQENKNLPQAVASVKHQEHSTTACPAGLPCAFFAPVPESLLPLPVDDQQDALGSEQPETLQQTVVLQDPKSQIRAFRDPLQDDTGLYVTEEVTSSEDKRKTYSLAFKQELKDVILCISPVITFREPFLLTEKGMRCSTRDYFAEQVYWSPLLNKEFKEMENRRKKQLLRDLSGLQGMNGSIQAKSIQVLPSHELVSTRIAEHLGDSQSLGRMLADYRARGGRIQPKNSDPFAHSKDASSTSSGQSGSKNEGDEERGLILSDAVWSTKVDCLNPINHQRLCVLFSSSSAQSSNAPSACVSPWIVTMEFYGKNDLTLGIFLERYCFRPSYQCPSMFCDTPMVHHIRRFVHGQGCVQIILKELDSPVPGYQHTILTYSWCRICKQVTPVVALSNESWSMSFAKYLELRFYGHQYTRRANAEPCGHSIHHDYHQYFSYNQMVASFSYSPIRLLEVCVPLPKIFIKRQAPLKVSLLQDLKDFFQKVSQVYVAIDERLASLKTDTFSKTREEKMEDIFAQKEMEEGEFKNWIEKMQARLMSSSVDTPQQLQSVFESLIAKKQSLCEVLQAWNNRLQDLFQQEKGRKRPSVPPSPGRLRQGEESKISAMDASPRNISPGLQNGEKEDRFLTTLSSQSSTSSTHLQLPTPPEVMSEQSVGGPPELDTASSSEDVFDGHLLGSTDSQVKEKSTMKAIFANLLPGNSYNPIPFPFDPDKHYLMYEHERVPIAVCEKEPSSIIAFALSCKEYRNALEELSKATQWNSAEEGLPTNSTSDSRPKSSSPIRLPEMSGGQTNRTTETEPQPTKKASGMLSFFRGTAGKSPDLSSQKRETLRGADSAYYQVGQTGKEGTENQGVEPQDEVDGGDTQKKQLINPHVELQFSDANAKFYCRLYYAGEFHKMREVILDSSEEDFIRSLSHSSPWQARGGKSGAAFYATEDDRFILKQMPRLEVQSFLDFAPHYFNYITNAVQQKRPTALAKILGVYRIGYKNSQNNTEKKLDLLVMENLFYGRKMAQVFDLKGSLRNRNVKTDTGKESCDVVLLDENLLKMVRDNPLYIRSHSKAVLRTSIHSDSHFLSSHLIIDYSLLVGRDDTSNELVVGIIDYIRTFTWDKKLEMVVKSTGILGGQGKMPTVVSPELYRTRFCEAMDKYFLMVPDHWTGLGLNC
row,Structure (SMILES),IC50
1,"Cc1cncc(-c2cc(Nc3nc(N4CCOCC4)c4oc(-c5ccncc5)cc4n3)[nH]n2)c1 [Compound 23, N-[5-(5-methyl-3-pyridyl)-1H-pyrazol-3-yl]-4-morpholino-6-(4-pyridyl)furo[3,2-d]pyrimidin-2-amine, hydrogen chloride]",195 nM
2,"COc1cccc(-c2cc(Nc3nc(N4CCOCC4)c4oc(-c5ccncc5)cc4n3)[nH]n2)c1 [Compound 24, N-[5-(3-methoxypheny1)-1H-pyrazol-3-yl]-4-morpholino-6-(4-pyridyl)furo[3,2-d]pyrimidin-2-amine, hydrogen chloride]",60 nM
3,"FC(F)(F)Oc1cccc(-c2cc(Nc3nc(N4CCOCC4)c4oc(-c5ccncc5)cc4n3)[nH]n2)c1 [Compound 25, 4-morpholino-6-(4-pyridyl)-N-[5-[3-(trifluoromethoxy)phenyl]-1H-pyrazol-3-yl]furo[3,2-d]pyrimidin-2-amine, hydrogen chloride]",956 nM
4,"c1ccc(-c2cc3nc(Nc4cc(-c5ccncc5)n[nH]4)nc(N4CCOCC4)c3o2)nc1 [Compound 28, 4-morpholino-6-(pyridin-2-yl)-N-(3-(pyridin-4-yl)-1H-pyrazol-5-yl) furo[3,2-d] pyrimidin-2-aminehydrochloride]",677 nM
5,"c1cncc(-c2cc3nc(Nc4cc(-c5ccncc5)n[nH]4)nc(N4CCOCC4)c3o2)c1 [Compound 31, 4-morpholino-6-(3-pyridyl)-N-[5-(4-pyridyl)-1H-pyrazol-3-yl]furo[3,2-d]pyrimidin-2-amine, hydrogen chloride]",369 nM
6,CN1CCC(c2cc3nc(Nc4cc(-c5ccccc5)n[nH]4)nc(N4CCOCC4)c3o2)CC1 [Compound 32],116 nM
7,Cc1cccc(-c2cc(Nc3nc(N4CCOCC4)c4oc(C5CCN(C)CC5)cc4n3)[nH]n2)c1 [Compound 33],59 nM
8,"CN1CCCC(c2cc3nc(Nc4cc(-c5ccccc5)n[nH]4)nc(N4CCOCC4)c3o2)C1 (centres unmarked) [Compound 35, 6-(1-methylpiperidin-3-yl)-4-morpholino-N-(3-phenyl-1H-pyrazol-5-yl)furo[3,2-d]pyrimidin-2-amine hydrochloride]",205 nM
9,Cc1cccc(-c2cc(Nc3nc(N4CCOCC4)c4oc(C5CCCN(C)C5)cc4n3)[nH]n2)c1 (centres unmarked) [Compound 36],37 nM
10,CN1CCCC(c2cc3nc(Nc4cc(-c5ccncc5)n[nH]4)nc(N4CCOCC4)c3o2)C1 (centres unmarked) [Compound 37],≥ 10000 nM
11,CN1CCC(c2cc3nc(Nc4cc(-c5ccccc5)n[nH]4)nc(N4CCOCC4)c3o2)C1 (centres unmarked) [Compound 38],131 nM
12,"Cc1cccc(-c2cc(Nc3nc(N4CCOCC4)c4oc(C5CCN(C)C5)cc4n3)[nH]n2)c1 (centres unmarked) [Compound 39, 6-(1-methylpyrrolidin-3-yl)-4-morpholino-N-(3-(m-tolyl)-1H-pyrazol-5-yl)furo[3,2-d]pyrimidin-2-amine hydrochloride]",2560 nM
13,CN1CCC(c2cc3nc(Nc4cc(-c5ccncc5)n[nH]4)nc(N4CCOCC4)c3o2)C1 (centres unmarked) [Compound 40],2570 nM
14,"c1ccc(-c2cnn(-c3nc(N4CCOCC4)c4oc(-c5ccncc5)cc4n3)c2)cc1 [Compound 41, 4-morpholino-2-(4-phenylpyrazol-1-yl)-6-(4-pyridyl)furo[3,2-d]pyrimidine, hydrogen chloride]",34 nM
15,"c1ccc(-c2coc(Nc3nc(N4CCOCC4)c4oc(-c5ccncc5)cc4n3)n2)cc1 [Compound 45, 4-morpholino-N-(4-phenyloxazol-2-yl)-6-(4-pyridyl)furo[3,2-d]pyrimidin-2-amine, hydrogen chloride]",48 nM
16,"c1ccc(-c2cnc(Nc3nc(N4CCOCC4)c4oc(-c5ccncc5)cc4n3)o2)cc1 [Compound 46, 4-morpholino-N-(5-phenyloxazol-2-yl)-6-(4-pyridyl)furo[3,2-d]pyrimidin-2-amine, hydrogen chloride]",107 nM
17,"c1ccc(-c2nnc(Nc3nc(N4CCOCC4)c4oc(-c5ccncc5)cc4n3)o2)cc1 [Compound 47, 4-morpholino-N-(5-phenyl-1,3,4-oxadiazol-2-yl)-6-(4-pyridyl)furo[3,2-d]pyrimidin-2-amine, hydrogen chloride]",52 nM
18,"c1ccc2c(Nc3nc(N4CCOCC4)c4oc(-c5ccncc5)cc4n3)n[nH]c2c1 [Compound 50, N-(1H-indazol-3-yl)-4-morpholino-6-(pyridin-4-yl)furo[3,2-d]pyrimidin-2-amine hydrochloride]",835 nM
19,"c1ccn2nc(Nc3nc(N4CCOCC4)c4oc(-c5ccncc5)cc4n3)cc2c1 [Compound 51, 4-morpholino-N-pyrazolo[1,5-a]pyridin-2-yl-6-(4-pyridyl)furo[3,2-d]pyrimidin-2-amine, hydrogen chloride]",88 nM
20,"NC(=O)c1cc2nc(Nc3cc(-c4ccccc4)n[nH]3)nc(N3CCOCC3)c2o1 [Compound 52, 4-morpholino-2-((3-phenyl-1H-pyrazol-5-yl)amino)furo[3,2-d]pyrimidine-6-carboxamide hydrochloride]",47 nM

# Stronger by IC50, values ahead:
row,IC50,Structure (SMILES)
1,9 nM,"Cc1cccc(-c2cc(Nc3nc(N4CCOCC4)c4oc(-c5ccncc5)cc4n3)[nH]n2)n1 [Compound 20, N-[5-(6-methyl-2-pyridyl)-1H-pyrazol-3-yl]-4-morpholino-6-(4-pyridyl)furo[3,2-d]pyrimidin-2-amine, hydrogen chloride]"
2,27 nM,"Cc1ccnc(-c2cc(Nc3nc(N4CCOCC4)c4oc(-c5ccncc5)cc4n3)[nH]n2)c1 [Compound 21, N-[5-(4-methyl-2-pyridyl)-1H-pyrazol-3-yl]-4-morpholino-6-(4-pyridyl)fnro[3,2-d]pyrimidin-2-amine, hydrogen chloride]"
3,27 nM,"Cc1cc(-c2cc(Nc3nc(N4CCOCC4)c4oc(-c5ccncc5)cc4n3)[nH]n2)ccn1 [Compound 22, N-(3-(2-methylpyridin-4-yl)-1H-pyrazol-5-yl)-4-morpholino-6-(pyridin-4-yl)furo[3,2-d]pyrimidin-2-amine hydrochloride]"
4,0.1 nM,"c1ccc(-c2cc(Nc3nc(N4CCOCC4)c4oc(-c5ccccn5)cc4n3)[nH]n2)cc1 [Compound 26, 4-morpholino-N-(5-phenyl-1H-pyrazol-3-yl)-6-(2-pyridyl)furo[3,2-d]pyrimidin-2-amine, hydrogen chloride]"
5,1 nM,"Cc1cccc(-c2cc(Nc3nc(N4CCOCC4)c4oc(-c5ccccn5)cc4n3)[nH]n2)c1 [Compound 27, 4-morpholino-N-[5-(m-tolyl)-1H-pyrazol-3-yl]-6-(2-pyridyl)furo[3,2-d]pyrimidin-2-amine, hydrogen chloride]"
6,1 nM,"c1ccc(-c2cc(Nc3nc(N4CCOCC4)c4oc(-c5cccnc5)cc4n3)[nH]n2)cc1 [Compound 29, 4-morpholino-N-(5-phenyl-1H-pyrazol-3-yl)-6-(3-pyridyl)furo[3,2-d]pyrimidin-2-amine, hydrogen chloride]"
7,0.5 nM,"Cc1cccc(-c2cc(Nc3nc(N4CCOCC4)c4oc(-c5cccnc5)cc4n3)[nH]n2)c1 [Compound 30, 4-morpholino-N-[5-(m-tolyl)-1H-pyrazol-3-yl]-6-(3-pyridyl)furo[3,2-d]pyrimidin-2-amine, hydrogen chloride]"
8,10 nM,"CN1CCC(c2cc3nc(Nc4cc(-c5ccncc5)n[nH]4)nc(N4CCOCC4)c3o2)CC1 [Compound 34, 6-(1-methylpiperidin-4-yl)-4-morpholino-N-(3-(pyridin-4-yl)-1H-pyrazol-5-yl)furo[3,2-d]pyrimidin-2-amine hydrochloride]"
9,9 nM,"Cc1cccc(-c2cnn(-c3nc(N4CCOCC4)c4oc(-c5ccncc5)cc4n3)c2)c1 [Compound 42, 4-morpholino-6-(pyridin-4-yl)-2-(4-(m-tolyl)-1H-pyrazol-1-yl)furo[3,2-d]pyrimidine]"
10,2 nM,"c1ccc(-c2cc(Nc3nc(N4CCOCC4)c4oc(-c5ccncc5)cc4n3)on2)cc1 [Compound 44, 4-morpholino-N-(3-phenylisoxazol-5-yl)-6-(pyridin-4-yl)furo[3,2-d]pyrimidin-2-amine]"
11,32 nM,"c1ccc(-n2ccc(Nc3nc(N4CCOCC4)c4oc(-c5ccncc5)cc4n3)n2)cc1 [Compound 48, 4-morpholino-N-(1-phenylpyrazol-3-yl)-6-(4-pyridyl)furo[3,2-d]pyrimidin-2-amine, hydrogen chloride]"
12,21 nM,"c1ccc(-n2cc(Nc3nc(N4CCOCC4)c4oc(-c5ccncc5)cc4n3)cn2)cc1 [Compound 49, 4-morpholino-N-(1-phenylpyrazol-4-yl)-6-(4-pyridyl)furo[3,2-d]pyrimidin-2-amine, hydrogen chloride]"
